{
  "source": "patent US20080300298A1",
  "about": "“Honokiol Derivates For the Treatment of Proliferative Disorders” (priority 2005, published 2008)",
  "key": {"[1]": {"test_system": "microvascular endothelial cells", "assay": "endothelial proliferation with TRAIL antibody", "type": "cell-based", "settings": "0, 1, 6 or 9 μg/ml, 48 h", "experimental": "10^4/well microvascular endothelial cells were cultured in 24-well plates for 24 h. The next day, cells were washed by PBS and pretreated with 0.5 ml/well fresh MEC medium with 0, 1, 6, or 9 μg/ml honokiol for 30 min before addition of TRAIL or isotype control antibody (30 μg/well). Cells were incubated for 48 h after the addition of reagents and were counted with a Coulter Counter. The green bars represent endothelial cells treated with honokiol alone, the dark blue bars represent cells treated with honokiol and TRAIL antibody, and the light blue bars represent cells treated with honokiol and isotype control antibody. The differences in honokiol-treated endothelium in the presence or absence of TRAIL antibody are significant (p<0.05)."}, "MCF-7 cells": {"test_system": "MCF-7 cells", "assay": "Cell cycle assay (PI)", "type": "cell-based", "settings": "24 hours (control 26%)", "experimental": "(§1) Cell cycle assays: 5×10^6 cells were cultured in the appropriate culture media containing 10% FCS, and treated with either control vehicle or various concentrations of HNK as indicated for 24 h. Following treatment, the cells were harvested, fixed in methanol and stained with propidium iodide (PI, Abcam, Cambridge, Mass.). Flow cytometry was performed at the Flow Cytometry Core facility of Cedars-Sinai Medical Center, using FACScan (Becton Dickinson, Franklin Lakes, N.J.).\n(§2) HNK slows cell cycle in breast cancer cell lines. The effects of HNK (10 μM or 30 μM HNK for 24 hours) on cell cycle were evaluated in MCF-7 and MDA-MB-231 cells. These doses of HNK are less than the LC50 for both cell lines. […] Expression of proteins involved in G1 cell-cycle regulation (massgue) was examined in MDA-MB-231 cells using Western analysis."}, "MDA-MB-231 cells": {"test_system": "MDA-MB-231 cells", "assay": "Cell cycle assay (PI)", "type": "cell-based", "settings": "24 hours (control 26%)", "experimental": "as §1, §2"}, "lymph node cultures": {"test_system": "lymph node cultures", "assay": "antigen recall lymph node cultures from treated mice", "type": "in vivo, C57BL/6 or mCD40-LMP1 Tg mice", "settings": "honokiol 3 mg/day, day 21-70 post-immunization", "experimental": "Mice were assessed 70 days post-immunization with CII/CF or CFA only (or naïve). Some mice received honokiol (3 mg/day) from day 21-70 post-immunization."}, "RPM18226 cells": {"test_system": "RPM18226 cells", "assay": "TUNEL assay", "type": "cell-based, human", "settings": "RPM18226, 10 ug/ml, 48 h", "experimental": "(§3) Assessment of HNK-induced cytotoxicity against patient MM cells: […] A CD38^high fraction enriched for MM cells was determined in side and forward scatter panel in each case. The expression of CD138 on gated cells was also evaluated. After HNK-treatment for 48 h, cells were harvested and percentage of CD38^high cells with or without HNK-treatment was evaluated. Cell cycle analysis: MM cells cultured with HNK were harvested, fixed with 70% ethanol, and pretreated with 250 μg/mL of RNAse (Sigma, St Louis, Mo.). Cells were stained with propidium iodide (PI; 50 μg/mL; Sigma, St Louis, Mo.), and cell cycle profile was determined by using the program M software on an EPICS XL flow cytometer (Beckman Coulter, Hialeah, Fla.). […] Fluorescence intensity of TUNEL and APO 2.7 staining was determined using on EPICS XL flow cytometer. Cytotoxicity was determined by trypan blue exclusion assay. […] Cell growth and induction of apoptosis were determined both by colorimetric assay and now cytometric detection of APO2.7 after 48 h treatment. […] Proliferation of MM cells was then assessed by [^3H]-thymidine uptake. […] DNA synthesis was measured by [^3H]-thymidine uptake. […] Angiogenesis assay: The anti-angiogenic effect of HNK was determined using an In Vitro Angiogenesis Assay Kit (Chemicon, Temecula, Calif.). […] After 6 h, tube formation by endothelial cells was evaluated. […]"}, "MM.1S cells": {"test_system": "MM.1S cells", "assay": "TUNEL assay", "type": "cell-based, human", "settings": "10 ug/ml, 48 h", "experimental": "as §3"}, "NF-kB in A293 cells": {"test_system": "NF-kB in A293 cells", "assay": "NF-kB-dependent reporter gene (SEAP) transcription", "type": "cell-based, human", "settings": "A293, 25 mM (printed) honokiol 12 h", "method": "A293 cells were transiently transfected with an NF-kB-containing plasmid linked to the SEAP gene and then treated with the indicated concentrations of honokiol. After 24 h in culture with 0.1 nM TNF, cell supernatants were collected and assayed for SEAP activity. Results are expressed as fold activity over the activity of the vector control. […] A293 cells were transiently transfected with the indicated plasmids along with an NF-kB-containing plasmid linked to the SEAP gene and then left either untreated or treated with 25 mM honokiol for 12 h. Cell supernatants were assayed for secreted alkaline phosphatase activity. Results are expressed as fold activity over the activity of the vector control. Bars indicate standard deviation.\nNF-kB-dependent reporter gene transcription. The effect of honokiol on TNF-induced NF-kB dependent reporter gene transcription in A293 cells was measured as previously described (Shishodia, S., et al. 2003 Cancer Res. 63:4375-4383).\nTo test the effect of honokiol on NF-kB-dependent gene transcription, cells were transiently transfected with the NF-kB-regulated SEAP reporter construct and then stimulated with TNF."}, "SVR angiosarcoma": {"test_system": "SVR angiosarcoma", "assay": "in vivo growth of SVR angiosarcoma", "settings": "nude mice", "description": "FIG. 18 depicts the effect of honokiol on in vivo growth of SVR angiosarcoma in nude mice.\nFIG. 18 illustrates the effect of honokiol on in vivo growth of SVR angiosarcoma in nude mice."}},
  "data": [
    {"compound": "C=CCc1ccc(O)c(-c2ccc(O)c(CC=C)c2)c1", "note": "[HNK, Honokiol]", "values": [
      {"measurement": "inhibition of endothelial proliferation with or without TRAIL antibody", "setting": "[1]", "value": "TRAIL-dependent"},
      {"measurement": "cells in S-phase", "setting": "MCF-7 cells; MCF-7, 10 μM", "value": 20, "unit": "%"},
      {"measurement": "cells in S-phase", "setting": "MCF-7 cells; MCF-7, 30 μM", "value": 20, "unit": "%"},
      {"measurement": "cells in S-phase", "setting": "MDA-MB-231 cells; MDA-MB-231, 10 μM", "value": 15, "unit": "%"},
      {"measurement": "cells in S-phase", "setting": "MDA-MB-231 cells; MDA-MB-231, 30 μM", "value": 10, "unit": "%"},
      {"measurement": "proliferation and cytokine production of antigen recall lymph node cultures", "setting": "lymph node cultures", "value": "decreased proliferation and IFN-g production, with unaltered IL-10 production"},
      {"measurement": "TUNEL positive cells", "setting": "RPM18226 cells", "value": 41.5, "unit": "%"},
      {"measurement": "TUNEL positive cells", "setting": "MM.1S cells", "value": 38.2, "unit": "%"},
      {"measurement": "SEAP expression induced by TNFR1, TRADD, TRAF2, NIK, IKKb, and p65 plasmids", "setting": "NF-kB in A293 cells", "value": "suppressed SEAP expression in all cells except those transfected with p65"},
      {"measurement": "in vivo growth of SVR angiosarcoma", "setting": "SVR angiosarcoma", "value": "effective against tumors in vivo"},
      {"measurement": "toxicity to the host animal", "setting": "SVR angiosarcoma", "value": "nontoxic to the host animal"}
    ]}
  ]
}
